Measured values: publication PMC8303187, “Anti-Inflammatory Effects of Compounds from Cudrania tricuspidata in HaCaT Human Keratinocytes” (International Journal of Molecular Sciences, 2021)

What was measured:
Format in all cases: cell-based, human
[1] = test system: p38 phosphorylation in HaCaT cells; test: p38 phosphorylation in TNF-α + IFN-γ-treated HaCaT cells (Western blotting); conditions: HaCaT cells pretreated 3 h, then TNF-α + IFN-γ (20 ng/mL) 6 h; Western blot
Protocol: (§1) Stimulation of keratinocytes with TNF-α + IFN-γ upregulates various MAPK signaling pathways. To evaluate the anti-inflammatory effects of the six compounds from C. tricuspidata on the MAPK pathway, Western blotting analysis was used to determine the phosphorylation levels of JNK1/2, ERK1/2, and p38 in TNF-α + IFN-γ-treated HaCaT cells. Cells were pretreated with the six compounds from C. tricuspidata at the indicated concentrations for 3 h, and then stimulated with TNF-α + IFN-γ (20 ng/mL) for either 15 min, 2 h, or 6 h. Following the treatment with TNF-α + IFN-γ for 2 h, the phosphorylation of JNK1/2 was not inhibited by any of the six compounds (Figure 6A,B). After 15 min of treatment with TNF-α + IFN-γ, ERK1/2 phosphorylation was inhibited only by compound 14 (Figure 6C,D). The phosphorylation of p38 was inhibited only by compounds 13 and 4 after 6 h of treatment with TNF-α + IFN-γ (Figure 6E,F). […]
(§2) Figure 6 Effect of the six compounds from C. tricuspidata on JNK-1/2, ERK-1/2, and p38 phosphorylation in HaCaT cells. […] Cell extracts were analyzed using Western blotting and antibodies specific for phosphorylated JNK1/2 (p-JNK1/2), p-ERK1/2, or p-p38. […] Immunoblots were quantified using ImageJ software. The band intensity was quantified and normalized to each total protein concentration. * p < 0.05, ** p < 0.01, and *** p < 0.001 compared with TNF-α + IFN-γ only. […]

[2] = test system: ICAM-1 protein expression in HaCaT cells; test: ICAM-1 protein expression in TNF-α + IFN-γ-treated HaCaT cells (Western blotting); conditions: HaCaT cells pre-incubated 3 h (5–80 μM), then TNF-α + IFN-γ (20 ng/mL) 6 h; Western blot
From the text: ICAM-1 is expressed in keratinocytes and is critical for the development of many skin diseases, such as contact dermatitis and lichen planus. Cyclooxygenase (COX) is the enzyme responsible for the conversion of arachidonic acid to prostaglandin H2, which is the main step in the prostaglandin synthesis pathway. COX-2 expression plays a key role in skin inflammation. In this experiment, the anti-inflammatory effects of the six compounds from C. tricuspidata on the expression of pro-inflammatory proteins were investigated in TNF-α + IFN-γ-treated HaCaT cells. […] Previous studies have reported that compound 6 inhibits the expression of COX-2 [55]; however, this study is the first to report the inhibition of COX-2 protein production by compound 6 in HaCaT cells. […]
(§3) Figure 4 Protein expression levels of COX-2 (A,B) and ICAM-1 (C,D) in TNF-α + IFN-γ-treated HaCaT cells. […] The immunoblot was quantified using ImageJ software. […]
(§4) Cells were harvested and pelleted via centrifugation at 200× g for 3 min, washed with PBS, and lysed in 20 mM Tris-HCl buffer (pH 7.4) containing a protease inhibitor mixture (0.1 mM phenylmethanesulfonyl fluoride, 5 mg/mL aprotinin, 5 mg/mL pepstatin A, and 1 mg/mL chymostatin). The protein concentration was determined using a protein assay dye reagent concentrate (#5000006; Bio-Rad Laboratories, Hercules, CA, USA). […]

[3] = test system: COX-2 protein expression in HaCaT cells; test: COX-2 protein expression in TNF-α + IFN-γ-treated HaCaT cells (Western blotting); conditions: HaCaT cells pre-incubated 3 h (5–80 μM), then TNF-α + IFN-γ (20 ng/mL) 24 h; Western blot
From the text: ICAM-1 is expressed in keratinocytes and is critical for the development of many skin diseases, such as contact dermatitis and lichen planus. Cyclooxygenase (COX) is the enzyme responsible for the conversion of arachidonic acid to prostaglandin H2, which is the main step in the prostaglandin synthesis pathway. COX-2 expression plays a key role in skin inflammation. In this experiment, the anti-inflammatory effects of the six compounds from C. tricuspidata on the expression of pro-inflammatory proteins were investigated in TNF-α + IFN-γ-treated HaCaT cells. Briefly, cells were pre-incubated for 3 h with or without the six compounds from C. tricuspidata (5–80 μM) and were subsequently challenged with TNF-α + IFN-γ (20 ng/mL) for 24 h. […]
as §3, §4

[4] = test system: ERK1/2 phosphorylation in HaCaT cells; test: ERK1/2 phosphorylation in TNF-α + IFN-γ-treated HaCaT cells (Western blotting); conditions: HaCaT cells pretreated 3 h, then TNF-α + IFN-γ (20 ng/mL) 15 min; Western blot
Protocol: as §1, §2

Structure (SMILES) | phosphorylation of p38 [1] | ICAM-1 expression [2] | expression level of COX-2 [3] | ERK1/2 phosphorylation [4]
CC(C)=CCc1c(O)cc2c(c1O)C(=O)C[C@@H](c1ccc(O)cc1O)O2 [Compound 4, cudraflavanone B] | inhibited |  |  | 
CC(C)=CCc1c(O)cc2oc(-c3ccc(O)cc3O)c(CC=C(C)C)c(=O)c2c1O [Compound 6, cudraflavone C] |  | particularly effective | decreased | 
C=CC(C)(C)c1c(OC)cc2oc3cc(O)c(O)cc3c(=O)c2c1O [Compound 13, 1,6,7-trihydroxy-2-(1,1-dimethyl-2-propenyl)-3-methoxyxanthone] | inhibited |  |  | 
C=CC(C)(C)c1c(O)cc(O)c2c(=O)c3cc(O)c(O)cc3oc12 [Compound 14, cudratricusxanthone L] |  | particularly effective | decreased | inhibited
